From patent US10238670B2, “9-aminomethyl minocycline compounds and methods of use thereof in urinary tract infection (UTI) treatment” (Paratek Pharmaceuticals, Inc., priority 2016, dated 2019)

Key:
Assay in all cases: In vitro MIC, 2010 surveillance isolates
A. baumanii = type: cell-based
K. oxytoca = type: cell-based; conditions: for % R (resistance): Eucast breakpoints
E. coli ESBL− = type: cell-based, Escherichia coli; conditions: for % R (resistance): Eucast breakpoints
MS CoNS = type: cell-based, Coagulase-Negative Staphylococcus
E. faecium VNS = type: cell-based; conditions: for % R (resistance): Eucast breakpoints
MSSA = type: cell-based
MRSA = type: cell-based
K. pneumoniae ESBL− = type: cell-based, Klebsiella pneumoniae
E. faecium VS = type: cell-based; conditions: for % R (resistance): Eucast breakpoints
MR CoNS = type: cell-based, Coagulase-Negative Staphylococcus
K. pneumoniae ESBL+ = type: cell-based, Klebsiella pneumoniae; conditions: for % R (resistance): Eucast breakpoints
Acinetobacter spp = type: cell-based
E. cloacae CeftazS = type: cell-based; conditions: for % R (resistance): Eucast breakpoints
Enterobacter spp = type: cell-based; conditions: for % R (resistance): Eucast breakpoints
E. cloacae CeftazR = type: cell-based; conditions: for % R (resistance): Eucast breakpoints
E. faecalis VNS = type: cell-based
E. faecalis VS = type: cell-based
E. coli ESBL+ = type: cell-based, Escherichia coli; conditions: for % R (resistance): Eucast breakpoints

## amoxicillin-clavulanic acid [Amox/clav]
A. baumanii; Asia/Pac, N=275
  MIC90: > 8 µg/mL
A. baumanii; Europe, N=145
  MIC90: > 8 µg/mL
A. baumanii; L. Amer, N=275
  MIC90: > 8 µg/mL
A. baumanii; N America, N=154
  MIC90: > 8 µg/mL
K. oxytoca; Asia/Pac
  % R (resistance): 23.5%
K. oxytoca; Asia/Pac, N=17
  MIC90: > 8 µg/mL
K. oxytoca; Europe
  % R (resistance): 14.6%
K. oxytoca; Europe, N=158
  MIC90: > 8 µg/mL
K. oxytoca; L. Amer, N=25
  MIC90: > 8 µg/mL
K. oxytoca; N America, N=177
  MIC90: > 8 µg/mL
E. coli ESBL−; Asia/Pac
  % R (resistance): 14.2%
E. coli ESBL−; Asia/Pac, N=282
  MIC90: > 8 µg/mL
E. coli ESBL−; Europe
  % R (resistance): 17.7%
E. coli ESBL−; Europe, N=1533
  MIC90: > 8 µg/mL
E. coli ESBL−; L. Amer, N=389
  MIC90: > 8 µg/mL
E. coli ESBL−; N America, N=1172
  MIC90: > 8 µg/mL
MS CoNS; Asia/Pac, Eucast breakpoints
  % R (resistance): 0%
MS CoNS; Asia/Pac, N=18
  MIC90: ≤ 1 µg/mL
MS CoNS; Europe, Eucast breakpoints
  % R (resistance): 0%
MS CoNS; Europe, N=185
  MIC90: ≤ 1 µg/mL
MS CoNS; L. Amer, CLSI breakpoints
  % R (resistance): 0%
MS CoNS; L. Amer, N=67
  MIC90: ≤ 1 µg/mL
MS CoNS; N America, CLSI breakpoints
  % R (resistance): 0%
MS CoNS; N America, N=191
  MIC90: ≤ 1 µg/mL
E. faecium VNS; Asia/Pac
  % R (resistance): 100%
E. faecium VNS; Asia/Pac, N=24
  MIC90: > 8 µg/mL
E. faecium VNS; Europe
  % R (resistance): 100%
E. faecium VNS; Europe, N=71
  MIC90: > 8 µg/mL
E. faecium VNS; L. Amer, N=41
  MIC90: > 8 µg/mL
E. faecium VNS; N America, N=478
  MIC90: > 8 µg/mL
MSSA; Asia/Pac, Eucast breakpoints
  % R (resistance): 0%
MSSA; Asia/Pac, N=641
  MIC90: ≤ 1 µg/mL
MSSA; Europe, Eucast breakpoints
  % R (resistance): 0%
MSSA; Europe, N=2109
  MIC90: ≤ 1 µg/mL
MSSA; L. Amer, CLSI breakpoints
  % R (resistance): 0%
MSSA; L. Amer, N=590
  MIC90: ≤
MSSA; N America, CLSI breakpoints
  % R (resistance): 0.1%
MSSA; N America, N=2373
  MIC90: ≤ 1 µg/mL
MRSA; Asia/Pac, Eucast breakpoints
  % R (resistance): 100%
MRSA; Asia/Pac, N=428
  MIC90: > 8 µg/mL
MRSA; Europe, Eucast breakpoints
  % R (resistance): 100%
MRSA; Europe, N=750
  MIC90: > 8 µg/mL
MRSA; L. Amer, CLSI breakpoints
  % R (resistance): 100%
MRSA; L. Amer, N=506
  MIC90: > 8 µg/mL
MRSA; N America, CLSI breakpoints
  % R (resistance): 100%
MRSA; N America, N=2508
  MIC90: > 8 µg/mL
K. pneumoniae ESBL−; Asia/Pac, Eucast breakpoints
  % R (resistance): 3.7%
K. pneumoniae ESBL−; Asia/Pac, N=189
  MIC90: 8 µg/mL
K. pneumoniae ESBL−; Europe, Eucast breakpoints
  % R (resistance): 7.2%
K. pneumoniae ESBL−; Europe, N=361
  MIC90: 8 µg/mL
K. pneumoniae ESBL−; L. Amer, N=160
  MIC90: 8 µg/mL
K. pneumoniae ESBL−; N America, CLSI breakpoints
  % R (resistance): 0%
K. pneumoniae ESBL−; N America, N=671
  MIC90: 4 µg/mL
E. faecium VS; Asia/Pac
  % R (resistance): 91.5%
E. faecium VS; Asia/Pac, N=106
  MIC90: > 8 µg/mL
E. faecium VS; Europe
  % R (resistance): 93.4%
E. faecium VS; Europe, N=303
  MIC90: > 8 µg/mL
E. faecium VS; L. Amer, N=51
  MIC90: > 8 µg/mL
E. faecium VS; N America, N=115
  MIC90: > 8 µg/mL
MR CoNS; Asia/Pac, Eucast breakpoints
  % R (resistance): 100%
MR CoNS; Asia/Pac, N=77
  MIC90: > 8 µg/mL
MR CoNS; Europe, Eucast breakpoints
  % R (resistance): 100%
MR CoNS; Europe, N=510
  MIC90: > 8 µg/mL
MR CoNS; L. Amer, CLSI breakpoints
  % R (resistance): 100%
MR CoNS; L. Amer, N=301
  MIC90: > 8 µg/mL
MR CoNS; N America, CLSI breakpoints
  % R (resistance): 100%
MR CoNS; N America, N=461
  MIC90: 8 µg/mL
K. pneumoniae ESBL+; Asia/Pac
  % R (resistance): 72.6%
K. pneumoniae ESBL+; Asia/Pac, N=124
  MIC90: > 8 µg/mL
K. pneumoniae ESBL+; Europe
  % R (resistance): 84.1%
K. pneumoniae ESBL+; Europe, N=151
  MIC90: > 8 µg/mL
K. pneumoniae ESBL+; L. Amer, N=209
  MIC90: > 8 µg/mL
K. pneumoniae ESBL+; N America, N=108
  MIC90: > 8 µg/mL
Acinetobacter spp; Europe, N=43
  MIC90: > 8 µg/mL
Acinetobacter spp; N America, N=42
  MIC90: > 8 µg/mL
E. cloacae CeftazS; Asia/Pac
  % R (resistance): 94%
E. cloacae CeftazS; Asia/Pac, N=100
  MIC90: > 8 µg/mL
E. cloacae CeftazS; Europe
  % R (resistance): 92.3%
E. cloacae CeftazS; Europe, N=183
  MIC90: > 8 µg/mL
E. cloacae CeftazS; L. Amer, N=57
  MIC90: > 8 µg/mL
E. cloacae CeftazS; N America, N=210
  MIC90: > 8 µg/mL
Enterobacter spp; Asia/Pac
  % R (resistance): 96.2%
Enterobacter spp; Asia/Pac, N=52
  MIC90: > 8 µg/mL
Enterobacter spp; Europe
  % R (resistance): 91.5%
Enterobacter spp; Europe, N=82
  MIC90: > 8 µg/mL
Enterobacter spp; L. Amer, N=42
  MIC90: > 8 µg/mL
Enterobacter spp; N America, N=101
  MIC90: > 8 µg/mL
E. cloacae CeftazR; Asia/Pac
  % R (resistance): 100%
E. cloacae CeftazR; Asia/Pac, N=63
  MIC90: > 8 µg/mL
E. cloacae CeftazR; Europe
  % R (resistance): 100%
E. cloacae CeftazR; Europe, N=72
  MIC90: > 8 µg/mL
E. cloacae CeftazR; L. Amer, N=42
  MIC90: > 8 µg/mL
E. cloacae CeftazR; N America, N=77
  MIC90: > 8 µg/mL
E. faecalis VNS; Asia/Pac, N=1
  range of MICs (N <10, shown instead of MIC90): ≤1
E. faecalis VNS; Europe, Eucast breakpoints
  % R (resistance): 0%
E. faecalis VNS; Europe, N=8
  range of MICs (N <10, shown instead of MIC90): ≤1-2
E. faecalis VNS; L. Amer, CLSI breakpoints
  % R (resistance): 0%
E. faecalis VNS; L. Amer, N=7
  range of MICs (N <10, shown instead of MIC90): ≤1-2
E. faecalis VNS; N America, CLSI breakpoints
  % R (resistance): 0%
E. faecalis VNS; N America, N=38
  MIC90: ≤ 1 µg/mL
E. faecalis VS; Asia/Pac, Eucast breakpoints
  % R (resistance): 0%
E. faecalis VS; Asia/Pac, N=214
  MIC90: ≤ 1 µg/mL
E. faecalis VS; Europe, Eucast breakpoints
  % R (resistance): 0%
E. faecalis VS; Europe, N=669
  MIC90: ≤ 1 µg/mL
E. faecalis VS; L. Amer, CLSI breakpoints
  % R (resistance): 0%
E. faecalis VS; L. Amer, N=290
  MIC90: ≤ 1 µg/mL
E. faecalis VS; N America, CLSI breakpoints
  % R (resistance): 0%
E. faecalis VS; N America, N=863
  MIC90: ≤ 1 µg/mL
E. coli ESBL+; Asia/Pac
  % R (resistance): 39.3%
E. coli ESBL+; Asia/Pac, N=219
  MIC90: > 8 µg/mL
E. coli ESBL+; Europe
  % R (resistance): 70.1%
E. coli ESBL+; Europe, N=274
  MIC90: > 8 µg/mL
E. coli ESBL+; L. Amer, N=168
  MIC90: > 8 µg/mL
E. coli ESBL+; N America, N=134
  MIC90: > 8 µg/mL
